Starred links: 1 amine or outer side, 2 acyl side, 3 side chain; linkers in the order of their positions; H or OH if unused. Positions of bridges follow the written chain, without caps; N, C: chain ends. Non-standard residues stand in square brackets, D forms with d. Residues, ends and D or L forms follow the SMILES beside them. *: point of attachment. hPhe(3-Cl-4-CF3) = N[C@@H](CCc1ccc(C(F)(F)F)c(Cl)c1)C(=O)O; NMePhe(4-CF3) = CN[C@@H](Cc1ccc(C(F)(F)F)cc1)C(=O)O; hPhe(4-CF3) = N[C@@H](CCc1ccc(C(F)(F)F)cc1)C(=O)O; NMePhe(4-Cl) = CN[C@@H](Cc1ccc(Cl)cc1)C(=O)O; NMePhe(4-F) = CN[C@@H](Cc1ccc(F)cc1)C(=O)O; X41 = O=C([C@H](Cc1cccc(I)c1F)N[*:1])[*:2]; NMedβ3hAla = C[C@H](CC(=O)[*:2])N(C)[*:1]; Phe(3-I) = N[C@@H](Cc1cccc(I)c1)C(=O)O; X26 = O=C([C@@H]1CCC[C@H]1N[*:1])[*:2]; NMeY = CN[C@@H](Cc1ccc(O)cc1)C(=O)O; NMeCha = CN[C@@H](CC1CCCCC1)C(=O)O; NMeF = CN[C@@H](Cc1ccccc1)C(=O)O; NMeD = CN[C@@H](CC(=O)O)C(=O)O; NMeL = CN[C@@H](CC(C)C)C(=O)O; NMeV = CN[C@H](C(=O)O)C(C)C; d(β3hA) = C[C@@H](N)CC(=O)O; NMeAbu = CC[C@H](NC)C(=O)O; NMeA = CN[C@@H](C)C(=O)O; NMeAib = CNC(C)(C)C(=O)O; Nle = CCCC[C@H](N)C(=O)O; Piperidide = C1CCN(*)CC1; Pra = C#CC[C@H](N)C(=O)O; Pyrrolidide = C1CCN(*)C1; Ac5c = NC1(C(=O)O)CCCC1; Aze = O=C(O)[C@@H]1CCN1; Sar = CNCC(=O)O
biological target: T1, Kras and SOS1 (biotin-tagged human Kras loaded with GDP, His-tagged human SOS1) (Homo sapiens, UniProt P01116, G12D); test: Protein-protein interaction inhibition between Kras and SOS1 (KrasGl2D-SOS PPI) using AlphaScreen; assay type: binding; conditions: AlphaScreen; biotin-tagged human Kras loaded with GDP, His-tagged human SOS1; read-out: KRAS G12D-SOS PPI IC50
T1 construct: made in house; host or cells: E. coli (stated for Kras only)
How it was run: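 Read-out is acceptor-bead light at 520-620 nm, arising when 680 nm-irradiated nickel donor beads pass singlet oxygen to streptavidin acceptors. The bead pair links His-tagged SOS1 with biotin-tagged, GDP-bound Kras from E. coli.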

T1 sequence (P01116 1-188 isoform P01116-2 G12D): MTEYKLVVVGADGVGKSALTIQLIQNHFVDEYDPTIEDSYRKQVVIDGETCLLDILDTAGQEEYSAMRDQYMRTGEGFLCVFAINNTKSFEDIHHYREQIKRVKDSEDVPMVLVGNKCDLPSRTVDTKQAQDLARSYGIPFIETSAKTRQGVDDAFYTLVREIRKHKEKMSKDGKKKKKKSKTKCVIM

Compound | IC50 [nM]
C#CC[C@@H]1NC(=O)[C@H](Cc2cccc(I)c2)NC(=O)CN(C)C(=O)[C@H](Cc2ccc(F)cc2)N(C)C(=O)[C@@H]2CCN2C(=O)CN(C)C(=O)[C@H]([C@@H](C)CC)NC(=O)[C@H](CC(C)C)N(C)C(=O)C[C@@H](C(=O)N2CCCCC2)N(C)C(=O)[C@H](CC(C)C)NC(=O)C(C)(C)N(C)C1=O [Compound 1344] ([NMeL]I[Sar][Aze][NMePhe(4-F)][Sar][Phe(3-I)][Pra][NMeAib]L[NMeD]-Piperidide; lactam N-11) | 190
CCCC[C@@H]1NC(=O)[C@H](Cc2cccc(I)c2F)NC(=O)CN(C)C(=O)[C@H](Cc2ccc(OC)cc2)N(C)C(=O)[C@@H]2CCN2C(=O)[C@H](C)N(C)C(=O)[C@H]([C@@H](C)CC)NC(=O)[C@H](CC)N(C)C(=O)C[C@@H](C(=O)N2CCCCC2)N(C)C(=O)[C@H](CC(C)C)NC(=O)C(C)(C)N(C)C1=O [Compound 1249] ([NMeAbu]I[NMeA][Aze][NMeY](Me)[Sar][X41][Nle][NMeAib]L[NMeD]-Piperidide; lactam N-11) | 33
CC[C@H](C)[C@@H]1NC(=O)[C@H](C)N(C)C(=O)C[C@@H](C(=O)N2CCCC2)NC(=O)[C@H](CC(C)C)NC(=O)[C@H](Cc2ccccc2)N(C)C(=O)[C@H](CC(C)C)NC(=O)[C@H](CCc2ccc(C(F)(F)F)cc2)NC(=O)CN(C)C(=O)[C@H](Cc2ccc(Cl)cc2)N(C)C(=O)CN(C)C(=O)CN(C)C1=O [Compound 372] ([NMeA]I[Sar][Sar][NMePhe(4-Cl)][Sar][hPhe(4-CF3)]L[NMeF]LD-Pyrrolidide; lactam N-11) | 130
CCCC[C@@H]1NC(=O)C(C)(C)N(C)C(=O)[C@H](CCCC)NC(=O)[C@H](Cc2cccc(I)c2)NC(=O)CN(C)C(=O)[C@H](Cc2ccc(Cl)cc2)N(C)C(=O)CN(C)C(=O)CN(C)C(=O)[C@H]([C@@H](C)CC)NC(=O)[C@H](CC(C)C)N(C)C(=O)C[C@@H](C(=O)N2CCCCC2)N(C)C1=O [Compound 765] ([NMeL]I[Sar][Sar][NMePhe(4-Cl)][Sar][Phe(3-I)][Nle][NMeAib][Nle][NMeD]-Piperidide; lactam N-11) | 50
CC[C@H](C)[C@@H]1NC(=O)[C@H](C)N(C)C(=O)C[C@@H](C)NC(=O)[C@H](C(C)C)N(C)C(=O)C2(CCCC2)NC(=O)[C@@H]2CCCN2C(=O)[C@H](CCc2ccc(C(F)(F)F)c(Cl)c2)NC(=O)[C@H]2CCCN2C(=O)[C@H](CC2CCCCC2)N(C)C(=O)[C@@H]2CCCN2C(=O)CN(C)C1=O [Compound 666] (cyclo([Ac5c][NMeV][d(β3hA)][NMeA]I[Sar]P[NMeCha][dP][hPhe(3-Cl-4-CF3)]P)) | 25
CC[C@H](C)[C@@H]1NC(=O)[C@H](C)N(C)C(=O)C[C@@H](C)N(C)C(=O)[C@H](CC(C)C)NC(=O)C(C)(C)N(C)C(=O)[C@H](CC(C)C)NC(=O)[C@H](CCc2ccc(C(F)(F)F)c(Cl)c2)NC(=O)CN(C)C(=O)[C@H](CC2CCCCC2)N(C)C(=O)[C@@H]2CCN2C(=O)CN(C)C1=O [Compound 1387] (cyclo([Aze][NMeCha][Sar][hPhe(3-Cl-4-CF3)]L[NMeAib]L[NMedβ3hAla][NMeA]I[Sar])) | 14
CC[C@H](C)[C@@H]1NC(=O)[C@H](CC(C)C)N(C)C(=O)[C@@H]2CCC[C@H]2NC(=O)[C@H](C(C)C)N(C)C(=O)C2(CCCC2)NC(=O)[C@@H]2CCCN2C(=O)[C@H](CCc2ccc(C(F)(F)F)c(Cl)c2)NC(=O)CN(C)C(=O)[C@H](CC2CCCCC2)N(C)C(=O)CN(C)C(=O)CN(C)C1=O [Compound 347] (cyclo([Ac5c][NMeV][X26][NMeL]I[Sar][Sar][NMeCha][Sar][hPhe(3-Cl-4-CF3)]P)) | 27
CC[C@H](C)[C@@H]1NC(=O)[C@H](CC(C)C)N(C)C(=O)C[C@@H](C)N(C)C(=O)[C@H](CC(C)C)NC(=O)C(C)(C)N(C)C(=O)[C@H](CC(C)C)NC(=O)[C@H](CCc2ccc(C(F)(F)F)c(Cl)c2)NC(=O)CN(C)C(=O)[C@H](Cc2ccc(C(F)(F)F)cc2)N(C)C(=O)[C@@H]2CCN2C(=O)CN(C)C1=O [Compound 1403] (cyclo([Aze][NMePhe(4-CF3)][Sar][hPhe(3-Cl-4-CF3)]L[NMeAib]L[NMedβ3hAla][NMeL]I[Sar])) | 32

Source: patent US12371454B2, “Cyclic peptide compound having Kras inhibitory action” (priority 2019, dated 2025)
